Data: US8895585B2, “Nicotinamide derivative or salt thereof” (FUJIFILM Corporation, priority 2010, dated 2014)
Structures can show the parent of a compound that is named as a salt. Where two headings read alike, the source gives them in different places.

Assays:
[1] = target: T1, glutathione S-transferase (GST)-fused full-length human Syk protein (Homo sapiens, UniProt P43405); assay: Syk enzyme assay; type: biochemical
T1 construct: (GST)-fused full-length human Syk protein; GST (glutathione S-transferase); purchased Carna Biosciences
How it was run: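 IC50 values come from a time-resolved FRET readout (615 and 665 nm) of substrate phosphorylation, measured after an EDTA stop and 1 h antibody binding. The kinase reaction ran 40 min at room temperature with 27 μM ATP and 0.4 μM biotin-peptide, following a 15 min compound preincubation with baculovirus-made GST-full-length human Syk.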

THP-1 cells = assay: TNFα generation assay; type: cell-based, human; conditions: Homo sapiens
How it was run: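 THP-1 cells differentiated to macrophage-like cells with 10 ng/ml IFN-γ for 2 days, preincubated with compound 30 min at room temperature, then cultured 7 h on plates coated with human IgG (10 μg/ml). Secreted TNFα measured by ELISA or AlphaLISA.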

[2] = Syk enzyme assay, Test Example 1, read-out: IC50 of Syk-inhibitory activity
[3] = THP-1, THP-1 cells, Table 22, read-out: IC50 in TNFα generation assay
[4] = read-out: Syk-inhibitory activity (IC50)
[5] = THP-1, 7 h, IFN-γ-differentiated THP-1 cells on human IgG-coated plate, cultured 7 hours, read-out: TNFα generation inhibitory activity (IC50)

IC50 [1, 2] | IC50 (THP-1 cells; [3]) | IC50 [1, 4] | IC50 (THP-1 cells; [5]) | SMILES
< 10 nM | 130 to 200 nM |  |  | NC(=O)c1cc(F)c(N[C@@H]2CCCC[C@@H]2N)nc1Nc1cc(N)c2ncccc2c1 (relative stereo) [Example 41-1, 6-(cis-2-aminocyclohexylamino)-2-((8-aminoquinolin-6-yl)amino)-5-fluoronicotinamide]
< 10 nM | 130 to 200 nM |  |  | CCS(=O)(=O)Nc1cccc2cc(Nc3nc(N[C@@H]4CCCC[C@@H]4N)c(F)cc3C(N)=O)cnc12 (relative stereo) [Example 41-12, 6-(cis-2-aminocyclohexylamino)-2-((8-(ethylsulphonamide)quinolin-3-yl)amino)-5-fluoronicotinamide]
 |  | ≤ 1000 nM | ≤ 200 nM | NC(=O)c1cc(F)c(N[C@@H]2CCCC[C@@H]2N)nc1Nc1cncc2ccccc12 (single isomer, unassigned) [Example 9, 6-(cis-2-aminocyclohexylamino)-5-fluoro-2-(isoquinolin-4-ylamino)nicotinamide•hydrochloride]
 |  | ≤ 1000 nM | ≤ 200 nM | COc1cc(Nc2nc(N[C@@H]3CCCC[C@@H]3N)c(F)cc2C(N)=O)cc(OC)c1 (single isomer, unassigned) [Example 21, 6-(cis-2-aminocyclohexylamino)-2-(3,5-dimethoxyphenylamino)-5-fluoronicotinamide]
10 to 50 nM | 65 to 130 nM |  |  | COc1cc(Nc2nc(NC3CCCCC3N)c(F)cc2C(N)=O)cc(OC)c1OC (stereo not shown) [Example 002-007]
< 10 nM | 130 to 200 nM |  |  | Cc1cc(Nc2nc(NC3CCCCC3N)c(F)cc2C(N)=O)cnc1C (stereo not shown) [Example 002-024]
< 10 nM | 65 to 130 nM |  |  | NC(=O)c1cc(F)c(NC2CCCCC2N)nc1Nc1cccc2[nH]ncc12 (stereo not shown) [Example 002-025]
< 10 nM | 130 to 200 nM |  |  | COCCn1ncc2c(Nc3nc(NC4CCCCC4N)c(F)cc3C(N)=O)cccc21 (stereo not shown) [Example 002-030]
< 10 nM | 130 to 200 nM |  |  | NC(=O)c1cc(F)c(NC2CCCCC2N)nc1Nc1cccc2nn(CC3CC3)cc12 (stereo not shown) [Example 002-032]
< 10 nM | 130 to 200 nM |  |  | NC(=O)c1cc(F)c(NC2CCCCC2N)nc1Nc1ccc2nn(Cc3ccccc3)cc2c1 (stereo not shown) [Example 002-037]
< 10 nM | 65 to 130 nM |  |  | CCc1cncc(Nc2nc(NC3CCCCC3N)c(F)cc2C(N)=O)c1 (stereo not shown) [Example 002-038]
< 10 nM | 65 to 130 nM |  |  | Cn1cc2cc(Nc3nc(NC4CCCCC4N)c(F)cc3C(N)=O)ccc2n1 (stereo not shown) [Example 002-041]
< 10 nM | 130 to 200 nM |  |  | COCCn1ncc2ccc(Nc3nc(NC4CCCCC4N)c(F)cc3C(N)=O)cc21 (stereo not shown) [Example 002-048]
< 10 nM | 65 to 130 nM |  |  | NC(=O)c1cc(F)c(NC2CCCCC2N)nc1Nc1ccnc(-c2ccco2)c1 (stereo not shown) [Example 002-053]
10 to 50 nM | 65 to 130 nM |  |  | NC(=O)c1cc(F)c(NC2CCCCC2N)nc1Nc1ccnc(N2CCCC2=O)c1 (stereo not shown) [Example 002-054]
< 10 nM | 130 to 200 nM |  |  | CC(C)Oc1cc(Nc2nc(NC3CCCCC3N)c(F)cc2C(N)=O)ccn1 (stereo not shown) [Example 002-055]
< 10 nM | 65 to 130 nM |  |  | NC(=O)c1cc(F)c(NC2CCCCC2N)nc1Nc1ccnc(-c2ccoc2)c1 (stereo not shown) [Example 002-057]
< 10 nM | 65 to 130 nM |  |  | CNc1cc(Nc2nc(NC3CCCCC3N)c(F)cc2C(N)=O)ccn1 (stereo not shown) [Example 002-058]
10 to 50 nM | 130 to 200 nM |  |  | CCNc1cc(Nc2nc(NC3CCCCC3N)c(F)cc2C(N)=O)ccn1 (stereo not shown) [Example 002-059]
< 10 nM | 65 to 130 nM |  |  | CCOc1cc(Nc2nc(NC3CCCCC3N)c(F)cc2C(N)=O)ccn1 (stereo not shown) [Example 002-060]
< 10 nM | 130 to 200 nM |  |  | COCCOc1cc(Nc2nc(NC3CCCCC3N)c(F)cc2C(N)=O)ccn1 (stereo not shown) [Example 002-066]
10 to 50 nM | 130 to 200 nM |  |  | CNc1ccc(Nc2nc(NC3CCCCC3N)c(F)cc2C(N)=O)cn1 (stereo not shown) [Example 002-073]
< 10 nM | 130 to 200 nM |  |  | COCCOc1ccc2cc(Nc3nc(NC4CCCCC4N)c(F)cc3C(N)=O)ccc2n1 (stereo not shown) [Example 002-097]
